Results reported in doi:10.1101/2021.09.30.462449v1 (biorxiv, 2021).

Tests used:
Assay in all cases: biochemical
Conditions in all cases: read-out: % inhibition mean (Lanthascreen)
DDR2 = DDR2 (Homo sapiens, UniProt Q16832)
ULK3 = ULK3 (Homo sapiens, UniProt Q6PHR2)
MLK4 = MLK4 (Homo sapiens, UniProt Q5TCX8)
AAK1 = AAK1 (Homo sapiens, UniProt Q2M2I8)
SIK3 = SIK3 (Homo sapiens, UniProt Q9Y2K2)
ALK L1196M = ALK L1196M (Homo sapiens, UniProt Q9UM73, L1196M)
[1] = target: MAP3K7/MAP3K7IP1 (TAK1-TAB1) (Homo sapiens, UniProt O43318)
Sequence of MAP3K7/MAP3K7IP1 (TAK1-TAB1) (O43318 whole entry): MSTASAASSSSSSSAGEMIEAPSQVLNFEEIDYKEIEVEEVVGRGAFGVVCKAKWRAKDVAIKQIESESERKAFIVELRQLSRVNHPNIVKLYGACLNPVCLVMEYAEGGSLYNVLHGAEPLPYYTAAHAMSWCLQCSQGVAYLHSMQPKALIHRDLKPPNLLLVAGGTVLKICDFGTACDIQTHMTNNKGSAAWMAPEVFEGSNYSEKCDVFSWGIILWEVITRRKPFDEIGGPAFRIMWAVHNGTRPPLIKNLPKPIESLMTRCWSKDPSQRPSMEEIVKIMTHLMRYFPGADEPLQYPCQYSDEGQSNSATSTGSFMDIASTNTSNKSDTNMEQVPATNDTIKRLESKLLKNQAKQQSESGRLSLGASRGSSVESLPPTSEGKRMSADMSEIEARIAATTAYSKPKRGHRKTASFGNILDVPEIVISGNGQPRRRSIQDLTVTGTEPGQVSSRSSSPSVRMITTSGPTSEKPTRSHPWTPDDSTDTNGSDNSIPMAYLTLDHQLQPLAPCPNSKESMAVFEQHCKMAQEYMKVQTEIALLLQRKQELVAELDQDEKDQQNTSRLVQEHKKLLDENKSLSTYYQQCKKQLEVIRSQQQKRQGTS
Sequence of MAP3K7/MAP3K7IP1 (TAK1-TAB1) (Q15750 whole entry partner): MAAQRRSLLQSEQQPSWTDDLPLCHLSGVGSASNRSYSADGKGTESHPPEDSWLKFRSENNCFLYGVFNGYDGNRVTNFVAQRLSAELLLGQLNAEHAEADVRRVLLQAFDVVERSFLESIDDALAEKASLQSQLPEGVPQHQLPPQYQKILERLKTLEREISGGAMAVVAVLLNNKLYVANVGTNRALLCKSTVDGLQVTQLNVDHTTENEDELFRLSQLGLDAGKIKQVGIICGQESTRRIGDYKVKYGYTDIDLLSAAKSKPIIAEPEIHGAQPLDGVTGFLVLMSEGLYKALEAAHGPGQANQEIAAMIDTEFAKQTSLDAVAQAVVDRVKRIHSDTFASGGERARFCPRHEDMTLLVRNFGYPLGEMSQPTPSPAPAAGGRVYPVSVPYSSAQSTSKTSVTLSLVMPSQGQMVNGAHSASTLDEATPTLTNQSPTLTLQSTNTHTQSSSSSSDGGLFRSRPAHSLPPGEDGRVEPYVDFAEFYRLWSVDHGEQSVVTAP

CDK3/cyclin E1 = CDK3/cyclin E1 (Homo sapiens, UniProt Q00526)
TEK (TIE2) R849W = TEK (TIE2) R849W (Homo sapiens, UniProt Q02763, R849W)
CAMKK2 (CaMKK beta) = CAMKK2 (CaMKK beta) (Homo sapiens, UniProt Q96RR4)
KIT D816H = KIT D816H (Homo sapiens, UniProt P10721, D816H)
CDK16 (PCTK1)/cyclin Y = CDK16 (PCTK1)/cyclin Y (Homo sapiens, UniProt Q00536)
BRAF = BRAF (Homo sapiens, UniProt P15056)
MAP4K3 (GLK) = MAP4K3 (GLK) (Homo sapiens, UniProt Q8IVH8)
FYN A = FYN A (Homo sapiens, UniProt P06241)
DYRK2 = DYRK2 (Homo sapiens, UniProt Q92630)
MAPK10 (JNK3) = MAPK10 (JNK3) (Homo sapiens, UniProt P53779)
[2] = target: MAP2K6 (MKK6) S207E T211E (Homo sapiens, UniProt P52564, S207E/T211E)
Sequence of MAP2K6 (MKK6) S207E T211E (P52564 whole entry S207E/T211E): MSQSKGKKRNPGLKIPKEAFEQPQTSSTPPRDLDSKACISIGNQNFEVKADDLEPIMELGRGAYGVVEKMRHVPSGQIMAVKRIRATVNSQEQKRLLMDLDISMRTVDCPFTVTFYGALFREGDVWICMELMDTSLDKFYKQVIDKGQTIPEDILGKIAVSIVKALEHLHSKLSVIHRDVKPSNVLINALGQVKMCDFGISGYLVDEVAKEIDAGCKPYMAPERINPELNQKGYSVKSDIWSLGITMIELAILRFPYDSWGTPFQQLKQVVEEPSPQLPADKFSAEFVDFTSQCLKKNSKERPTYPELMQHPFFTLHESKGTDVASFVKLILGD

MYLK (MLCK) = MYLK (MLCK) (Homo sapiens, UniProt Q15746)
TGFBR2 = TGFBR2 (Homo sapiens, UniProt P37173)
AMPK (A1/B1/G3) = AMPK (A1/B1/G3) (Homo sapiens, UniProt Q13131)
STK17A (DRAK1) = STK17A (DRAK1) (Homo sapiens, UniProt Q9UEE5)
Sequence of STK17A (DRAK1) (Q9UEE5 whole entry): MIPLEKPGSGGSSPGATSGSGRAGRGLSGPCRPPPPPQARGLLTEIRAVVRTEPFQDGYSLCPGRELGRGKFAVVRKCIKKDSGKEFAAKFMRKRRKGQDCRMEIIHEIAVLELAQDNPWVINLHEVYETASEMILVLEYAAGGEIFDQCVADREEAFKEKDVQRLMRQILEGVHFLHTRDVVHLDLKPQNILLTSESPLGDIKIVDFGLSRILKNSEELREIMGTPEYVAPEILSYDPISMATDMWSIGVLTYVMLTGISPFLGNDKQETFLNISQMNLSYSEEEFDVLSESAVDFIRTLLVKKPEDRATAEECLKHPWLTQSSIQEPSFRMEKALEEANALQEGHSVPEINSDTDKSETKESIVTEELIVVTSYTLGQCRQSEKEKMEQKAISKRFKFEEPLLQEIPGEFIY

MAPK15 (ERK7) = MAPK15 (ERK7) (Homo sapiens, UniProt Q8TD08)
STK38L (NDR2) = STK38L (NDR2) (Homo sapiens, UniProt Q9Y2H1)
BMPR1B (ALK6) = BMPR1B (ALK6) (Homo sapiens, UniProt O00238)
WEE1 = WEE1 (Homo sapiens, UniProt P30291)
TGFBR1 (ALK5) = TGFBR1 (ALK5) (Homo sapiens, UniProt P36897)
GAK = GAK (Homo sapiens, UniProt O14976)
Sequence of GAK (O14976 whole entry): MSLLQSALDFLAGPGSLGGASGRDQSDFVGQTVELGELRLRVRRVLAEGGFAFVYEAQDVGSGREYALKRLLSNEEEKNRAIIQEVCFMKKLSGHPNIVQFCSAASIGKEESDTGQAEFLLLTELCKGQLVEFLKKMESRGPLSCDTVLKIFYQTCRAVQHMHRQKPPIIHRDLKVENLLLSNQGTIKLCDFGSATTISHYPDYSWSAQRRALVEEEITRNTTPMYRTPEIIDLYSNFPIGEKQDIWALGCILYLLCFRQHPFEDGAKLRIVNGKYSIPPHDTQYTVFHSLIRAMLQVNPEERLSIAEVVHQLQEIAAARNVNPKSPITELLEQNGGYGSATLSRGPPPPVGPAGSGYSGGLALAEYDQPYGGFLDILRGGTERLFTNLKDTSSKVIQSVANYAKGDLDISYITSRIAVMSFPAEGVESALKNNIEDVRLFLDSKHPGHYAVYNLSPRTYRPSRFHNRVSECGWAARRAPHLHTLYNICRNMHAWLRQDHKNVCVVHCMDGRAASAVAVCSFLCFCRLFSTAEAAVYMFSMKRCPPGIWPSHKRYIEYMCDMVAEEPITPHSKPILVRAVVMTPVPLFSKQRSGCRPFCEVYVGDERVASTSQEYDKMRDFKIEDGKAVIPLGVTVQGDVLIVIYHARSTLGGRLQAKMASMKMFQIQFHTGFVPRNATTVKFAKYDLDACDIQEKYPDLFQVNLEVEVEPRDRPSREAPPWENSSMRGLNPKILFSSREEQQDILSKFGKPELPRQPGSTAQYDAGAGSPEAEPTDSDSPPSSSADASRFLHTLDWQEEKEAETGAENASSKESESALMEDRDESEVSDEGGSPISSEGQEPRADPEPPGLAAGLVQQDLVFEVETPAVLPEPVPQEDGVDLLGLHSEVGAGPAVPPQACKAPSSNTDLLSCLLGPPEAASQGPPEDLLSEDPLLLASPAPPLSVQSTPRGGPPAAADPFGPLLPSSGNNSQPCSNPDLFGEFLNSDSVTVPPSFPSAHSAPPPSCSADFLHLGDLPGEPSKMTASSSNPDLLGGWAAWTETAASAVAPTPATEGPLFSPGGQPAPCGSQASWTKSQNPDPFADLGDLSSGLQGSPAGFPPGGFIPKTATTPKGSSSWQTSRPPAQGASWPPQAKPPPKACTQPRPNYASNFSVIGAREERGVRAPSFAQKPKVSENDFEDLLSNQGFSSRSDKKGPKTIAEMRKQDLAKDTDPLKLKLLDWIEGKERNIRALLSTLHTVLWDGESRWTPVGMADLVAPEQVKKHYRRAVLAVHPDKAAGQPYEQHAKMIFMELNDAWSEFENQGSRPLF

Sequence of ALK L1196M (Q9UM73 whole entry L1196M): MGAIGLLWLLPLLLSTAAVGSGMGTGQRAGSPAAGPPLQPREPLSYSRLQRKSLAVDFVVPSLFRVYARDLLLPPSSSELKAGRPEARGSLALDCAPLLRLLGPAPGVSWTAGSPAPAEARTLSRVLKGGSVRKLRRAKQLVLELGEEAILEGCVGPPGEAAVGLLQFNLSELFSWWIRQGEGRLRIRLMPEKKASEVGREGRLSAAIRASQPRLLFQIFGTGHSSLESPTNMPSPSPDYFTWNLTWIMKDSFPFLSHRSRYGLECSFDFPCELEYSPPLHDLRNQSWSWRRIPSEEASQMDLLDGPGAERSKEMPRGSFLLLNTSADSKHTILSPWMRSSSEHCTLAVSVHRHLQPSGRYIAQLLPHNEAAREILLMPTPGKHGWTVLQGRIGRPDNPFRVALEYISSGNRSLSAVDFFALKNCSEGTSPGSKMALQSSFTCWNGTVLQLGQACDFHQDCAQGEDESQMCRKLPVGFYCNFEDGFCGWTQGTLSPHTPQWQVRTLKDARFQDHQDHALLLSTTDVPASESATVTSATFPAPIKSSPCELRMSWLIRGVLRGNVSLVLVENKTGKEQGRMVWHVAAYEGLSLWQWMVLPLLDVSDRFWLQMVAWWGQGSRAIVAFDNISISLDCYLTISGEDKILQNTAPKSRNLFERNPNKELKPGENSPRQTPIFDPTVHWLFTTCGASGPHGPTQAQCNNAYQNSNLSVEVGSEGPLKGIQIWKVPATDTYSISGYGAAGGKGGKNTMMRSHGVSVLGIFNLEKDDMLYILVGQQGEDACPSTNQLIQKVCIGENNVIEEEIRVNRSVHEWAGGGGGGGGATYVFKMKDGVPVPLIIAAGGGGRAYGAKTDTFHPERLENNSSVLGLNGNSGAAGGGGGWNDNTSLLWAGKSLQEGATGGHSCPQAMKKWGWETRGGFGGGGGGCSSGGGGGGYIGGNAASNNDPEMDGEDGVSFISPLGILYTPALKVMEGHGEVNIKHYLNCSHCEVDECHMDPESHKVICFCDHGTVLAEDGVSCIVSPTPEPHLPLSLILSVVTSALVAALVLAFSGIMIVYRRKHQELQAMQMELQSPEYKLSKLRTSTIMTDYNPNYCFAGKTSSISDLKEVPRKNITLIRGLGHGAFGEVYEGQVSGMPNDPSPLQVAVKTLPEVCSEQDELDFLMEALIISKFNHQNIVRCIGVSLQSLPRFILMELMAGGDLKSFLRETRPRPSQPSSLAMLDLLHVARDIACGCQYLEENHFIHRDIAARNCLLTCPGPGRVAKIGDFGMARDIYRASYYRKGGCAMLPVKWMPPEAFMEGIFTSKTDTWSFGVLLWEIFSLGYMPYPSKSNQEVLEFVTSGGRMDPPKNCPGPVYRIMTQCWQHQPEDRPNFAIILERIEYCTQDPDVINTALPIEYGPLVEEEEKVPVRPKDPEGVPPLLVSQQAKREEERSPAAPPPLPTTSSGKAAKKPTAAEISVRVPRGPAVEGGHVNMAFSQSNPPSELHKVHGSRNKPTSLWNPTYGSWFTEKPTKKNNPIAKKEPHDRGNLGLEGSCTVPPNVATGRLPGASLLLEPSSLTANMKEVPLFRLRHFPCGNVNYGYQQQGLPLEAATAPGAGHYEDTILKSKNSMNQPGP

SMILES: COc1ccc2nc3cc(Cl)ccc3c(Nc3cc(CN4CCCC4)c(O)c(CN4CCCC4)c3)c2n1 [Pyronaridine, 4-[(7-Chloro-2-methoxybenzo[b][1,5]naphthyridin-10-yl)amino]-2,6-bis(1-pyrrolidinylmethyl)phenol phosphate (1:4)]
- inhibition at 1 µM (DDR2): 0%
- inhibition at 1 µM (ULK3): 8%
- inhibition at 1 µM (MLK4): 8%
- inhibition at 1 µM (AAK1): 0%
- inhibition at 1 µM (SIK3): -2%
- inhibition at 1 µM (ALK L1196M): -3%
- inhibition at 1 µM [1]: 1%
- inhibition at 1 µM (CDK3/cyclin E1): 3%
- inhibition at 1 µM (TEK (TIE2) R849W): -3%
- inhibition at 1 µM (CAMKK2 (CaMKK beta)): -1%
- inhibition at 1 µM (KIT D816H): -7%
- inhibition at 1 µM (CDK16 (PCTK1)/cyclin Y): -12%
- inhibition at 1 µM (BRAF): -11%
- inhibition at 1 µM (MAP4K3 (GLK)): 1%
- inhibition at 1 µM (FYN A): -3%
- inhibition at 1 µM (DYRK2): -7%
- inhibition at 1 µM (MAPK10 (JNK3)): 5%
- inhibition at 1 µM [2]: 10%
- inhibition at 1 µM (MYLK (MLCK)): 4%
- inhibition at 1 µM (TGFBR2): -4%
- inhibition at 1 µM (AMPK (A1/B1/G3)): -1%
- inhibition at 1 µM (STK17A (DRAK1)): 1%
- inhibition at 1 µM (MAPK15 (ERK7)): -11%
- inhibition at 1 µM (STK38L (NDR2)): -7%
- inhibition at 1 µM (BMPR1B (ALK6)): -3%
- inhibition at 1 µM (WEE1): 10%
- inhibition at 1 µM (TGFBR1 (ALK5)): -4%
- inhibition at 1 µM (GAK): 28%
